In US11643417B2, “Tetrahydrobenzofurodiazepinone compound and pharmaceutical use thereof” (priority 2020, dated 2023):
Where two headings read alike, the source gives them in different places.

Biological target: human Pim-1 (Homo sapiens (Human), UniProt P11309)
Experiment: biochemical
Assay type: biochemical
Experimental: The human Pim-1 inhibitory activity of the test compounds was evaluated as follows.
(1) Purification of Human Pim-1
DNA fragment in which a His-Tag sequence and a translation termination sequence are added to the 3′-end of human Pim-1 translation sequence was amplified by PCR (Polymerase Chain Reaction), using human Pim-1 gene-inserted plasmid DNA (Kazusa DNA Laboratory, model number FXC11400) as a template. The amplified DNA fragment was fused with pGEx-6P-1 (GE Healthcare Japan, model number 27-4597-1) digested with BamHI and EcoRI using In-Fusion HD Cloning Kit (Takara Bio, model number 639649). […] The base sequence of Pim-1 cloned into vector was determined by Dye Terminator method using BigDye Terminator v3.1 Cycle Sequencing Kit (Applied Biosystems, model number 4337456). […] Escherichia coli BL21 (DE3) (Merck KGaA, model number 69449-4) transformed with human Pim-1-expressed plasmid DNA was cultured in 2×YT medium (Becton Dickinson, model number 2404020) at 30° C., until the optical concentration at 620 nm (OD620) reached 0.6, and then cultured overnight at 20° C. in the presence of 0.5 mmol/L isopropyl b-D-1-thiogalactopyranoside. After the completion of so the culture, the cells were collected and suspended in Homogenate Buffer (50 mmol/L Tris-HCl (pH 7.5), 500 mmol/L NaCl, 1% Tween20, complete, EDTA-free (Roche, model number 1873580)), and the suspended cells were lysed by passing through a microfluidizer M-110H (Mizuho Kogyo Co., Ltd.). The lysate was centrifuged at 10,100×g for 10 minutes, 4° C., and the supernatant was filtered through MILLEX-HV Filter (0.45 μm) (Millipore, SLHV033RS) to remove the cell residues. The filtrate was loaded onto complete His-Tag Purification Resin (Roche Diagnostics, model number 05 893 682 0.01). The column was washed with Equilibration Buffer-1 (50 mmol/L Tris-HCl (pH 7.5), 500 mmol/L NaCl, 1% Tween 20) containing 5 mmol/L Imidazole, followed by Equilibration Buffer-1 containing 50 mmol/L Imidazole, the human Pim-1 to which GST-Tag derived from pGEx-6P-1 was eluted with Equilibration Buffer-1 containing 150 mmol/L imidazole. […] The protease reaction was carried out by stirring overnight at 4° C., and the human Pim-1 in which the GST-Tag sequence was cleaved was eluted. The eluate was loaded onto a gel filtration column (Superdex-200 […] (GE Healthcare, model number 17-5175-01)) equilibrated with Equilibration Buffer-3 (50 mmol/L Tris-HCl (pH 7.5), 500 mmol/L NaCl, 0.05% Tween20, 0.5 mmol/L EDTA, 2 mmol/L DTT, 10% Glycerol), and eluted. The eluate was used as a human Pim-1 purified fraction.
The protein concentration of the human Pim-1 purified fraction was measured with Pierce 660 nm Protein Assay Reagent (Thermo Fisher Scientific, model number 22660). The purified fraction was rapidly frozen in liquid nitrogen, and then stored at −80° C. The His-Tag-added human Pim-1 was detected by Western blotting using a mouse anti-His monoclonal antibody (WAKO, model number 011-23091).
(2) Evaluation of Human Pim-1 Inhibitory Activity
The calculation of the Pim-1 inhibitory activity of the compound was performed using the following solution according to the protocol attached to ADP-Glo Kinase Assay (cat. V9102, Promega). The purified enzyme of human Pim-1 described above was used.
(i) Preparation of Solution
The kinase buffer solution (50 mmol/L HEPES (pH 7.5), 5 mmol/L MgCl2, 1 mmol/L DTT, 0.05% BSA) was prepared by dissolving HEPES (Jena Bioscience), MgCl2 (Sigma-Aldrich), DTT (Sigma-Aldrich) and BSA (Sigma-Aldrich) in purified water.
The ATP solution (288 μmol/L) was prepared by dissolving 100 mmol/L ATP (Promega) in the kinase buffer solution.

[1] = Ki converted from IC50; purified human Pim-1, Pim2tide substrate, ADP-Glo; read-out: hPim1 Ki

human Pim-1, sequence (P11309 whole entry): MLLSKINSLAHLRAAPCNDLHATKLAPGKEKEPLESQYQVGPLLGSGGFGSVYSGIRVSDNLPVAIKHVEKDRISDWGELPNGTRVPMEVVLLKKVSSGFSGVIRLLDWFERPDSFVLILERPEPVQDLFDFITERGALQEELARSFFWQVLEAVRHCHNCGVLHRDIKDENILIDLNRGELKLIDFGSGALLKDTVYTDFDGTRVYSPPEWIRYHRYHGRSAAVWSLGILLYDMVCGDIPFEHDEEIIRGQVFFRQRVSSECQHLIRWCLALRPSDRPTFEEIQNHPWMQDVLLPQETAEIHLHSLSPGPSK

Row | Structure (SMILES) | Ki [1] | also measured
1 | COC1(CO)CCOC(C(F)(F)CN2CCNC(=O)c3oc4ccc(C(F)(F)F)cc4c32)C1 (stereo not shown) [Example 34] | 0.0206 nM | 
2 | CS(=O)(=O)C1CCC(CCN2CCNC(=O)c3oc4ccc(C(F)(F)F)cc4c32)CC1 (stereo not shown) [Example 123] | 0.784 nM | 
3 | N#CC[C@H]1CO[C@@H](CCN2CCNC(=O)c3oc4ccc(C(F)(F)F)cc4c32)CO1 (racemic) [Example 142] | 4.4 nM | 
4 | O=C1NCCN(CCC2CCC(O)(CO)CC2)c2c1oc1ccc(C(F)(F)F)cc21 (stereo not shown) [Example 89] |  | Ki (read-out: hPim1 Ki; Ki converted from IC50; purified human Pim-1, Pim2tide substrate, ADP-Glo): 0.0329 nM
5 | CC1(O)CCC(C(F)(F)CN2CCNC(=O)c3oc4ccc(C(F)(F)F)cc4c32)CC1 (single isomer, unassigned) [Example 148] | 0.114 nM | 
6 | O=C1NCCN(CC(F)(F)C2CC3(CCC2(F)F)OCCO3)c2c1oc1ccc(C(F)(F)F)cc21 (racemic) [Example 55] | 0.115 nM | 
7 | O=C1NCCN(CCC2CCC(O)(CF)CC2)c2c1oc1ccc(C(F)(F)F)cc21 (stereo not shown) [Example 144] | 0.801 nM | 
8 | O=C1NCCN(CCC2CCC(C3(O)CC3)CC2)c2c1oc1ccc(C(F)(F)F)cc21 (stereo not shown) [Example 99] |  | Ki (hPim1 Ki (nM), Ki converted from IC50; purified human Pim-1, Pim2tide substrate, ADP-Glo): 0.0764 nM
9 | O=C1NCCN(CCC2CC3(COC3)C2)c2c1oc1ccc(C(F)(F)F)cc21 [Example 82] | 2.06 nM | 
10 | O=C1NCCN(CC(F)(F)C2CCC(CO)CC2)c2c1oc1ccc(C(F)(F)F)cc21 (stereo not shown) [Example 138] | 0.0151 nM | 
11 | O=C1NCCN(CC[C@@H]2CO[C@H](CO)CO2)c2c1oc1ccc(C(F)(F)F)cc21 [Example 72] | 2.29 nM | 
12 | CC1COCC(CCN2CCNC(=O)c3oc4ccc(C(F)(F)F)cc4c32)O1 (racemic) [Example 114] | 0.708 nM | 
13 | CC1(O)CCC(CCN2CC3(CC3)NC(=O)c3oc4ccc(C(F)(F)F)cc4c32)CC1 (single isomer, unassigned) [Example 127] | 0.0532 nM | 
14 | CC1(O)CCOC(C(F)(F)CN2CCNC(=O)c3oc4ccc(C(F)(F)F)cc4c32)C1 (stereo not shown) [Example 58, 1-(2,2-difluoro-2-(4-hydroxy-4-methyltetrahydro-2H-pyran-2-yl)ethyl)-9-(trifluoromethyl)-1,2,3,4-tetrahydro-5H-benzofuro[3,2-e][1,4]diazepin-5-one] | 0.0167 nM | 
15 | O=C1CCC(CCN2CCNC(=O)c3oc4ccc(C(F)(F)F)cc4c32)CC1 [Example 75] | 1.62 nM | 
16 | CC1(C(=O)O)CCC(CCN2CCNC(=O)c3oc4ccc(C(F)(F)F)cc4c32)CC1 (stereo not shown) [Example 93] | 5.15 nM | 
17 | O=C1NCCN(CCC2CCCCO2)c2c1oc1ccc(C(F)(F)F)cc21 (stereo not shown) [Example 40] | 0.969 nM | 
18 | COC(C1CC(O)C1)C1(CN2CCNC(=O)c3oc4ccc(C(F)(F)F)cc4c32)CC1 (stereo not shown) [Example 17] | 0.234 nM | 
19 | O=C1NCCN(CC(F)(F)C2CC(OC(F)F)CCO2)c2c1oc1ccc(C(F)(F)F)cc21 (stereo not shown) [Example 54] | 0.133 nM | 
20 | O=C1NCCN(CC(F)(F)C2CC(O)C2)c2c1oc1ccc(C(F)(F)F)cc21 (stereo not shown) [Example 151] | 0.957 nM | 
21 | CS(=O)(=O)C[C@H]1CO[C@@H](CCN2CCNC(=O)c3oc4ccc(C(F)(F)F)cc4c32)CO1 (racemic) [Example 141] | 10.3 nM | 
22 | O=C1NCCN(CC(F)(F)C2CC(O)(C(F)F)CCO2)c2c1oc1ccc(C(F)(F)F)cc21 (single isomer, unassigned) [Example 52] | 0.104 nM | 
23 | O=C1NC2(CC2)CN(CC[C@@H]2CO[C@@H](CO)CO2)c2c1oc1ccc(C(F)(F)F)cc21 [Example 152] | 0.0929 nM | 
24 | O=C1NCCN(CC[C@@H]2CO[C@@H](CO)CO2)c2c1oc1ccc(C(F)(F)F)cc21 [Example 74] | 0.738 nM | 
25 | CN1CCN(CC[C@H]2CC[C@](O)(CO)CC2)c2c(oc3ccc(C(F)(F)F)cc23)C1=O [Example 2-03] | 0.414 nM | 
26 | CS(=O)(=O)CC1COCC(CCN2CCNC(=O)c3oc4ccc(C(F)(F)F)cc4c32)O1 (racemic) [Example 137] | 5.36 nM | 
27 | C[C@@H]1CO[C@H](CCN2CCNC(=O)c3oc4ccc(C(F)(F)F)cc4c32)CO1 [Example 64] | 0.263 nM | 
28 | C[C@]1(O)CC[C@@H](CCN2CCNC(=O)c3oc4ccc(C(F)(F)F)cc4c32)CC1 [Example 79] | 0.705 nM | 
